From PMC5567672 (Neuropharmacology, 2016)
Where two headings read alike, the source gives them in different places.

Assays:
β-arrestin 2(−/−) mice [1] = details: ref Beaulieu et al., 2008, David et al., 2009; cited from earlier work
wild type mice = details: ref Beaulieu et al., 2008; cited from earlier work
β-arrestin 2(−/−) mice [2] = details: chronic treatment, various assays; ref David et al., 2009; cited from earlier work
patients = details: ref Post et al. in press; cited from earlier work
animals = details: ref Post et al. in press; cited from earlier work
rodents = details: ref Jenck et al., 1997, 2000; cited from earlier work
NOP(+/+) mice = experiment: Elevated plus maze; type: in vivo, mouse; details: Ro 65–6570 0.1 mg/kg, i.p.; 8–10 mice per group
mice [3] = experiment: Forced swim test; type: in vivo, mouse; details: for FST activity (Table 1 summary): in vivo, mice
mice [4] = experiment: Elevated plus maze; type: in vivo, mouse; details: for EPM activity (Table 1 summary): in vivo, mice
NOP(−/−) mice = experiment: Elevated plus maze; type: in vivo, mouse; details: Ro 65–6570 0.1 mg/kg, i.p.; 8–10 mice per group
mice [5] = system: mice
[6] = molecular target: T1, NOP/β-arrestin 2 interaction (NOP receptor) (Homo sapiens, UniProt P41146); details: ref Malfacini et al., 2015, cited from earlier work; for antagonism of N/OFQ stimulated NOP/β-arrestin 2 interaction: against N/OFQ
[7] = molecular target: T2, NOP/G-protein interaction (NOP receptor) (Homo sapiens, UniProt P41146); type: biochemical
[8] = molecular target: T1, NOP/β-arrestin 2 interaction (NOP receptor); experiment: BRET assay, NOP/β-arrestin 2 interaction; type: cell-based; details: relative to N/OFQ
[9] = molecular target: T2, NOP/G-protein interaction (NOP receptor); details: 2015, cited from earlier work; for antagonism of N/OFQ effects, NOP/G protein / rank order of antagonist potency, NOP/G protein: against N/OFQ, ref Camarda et al., 2009, Malfacini et al.

T2 sequence (P41146 whole entry): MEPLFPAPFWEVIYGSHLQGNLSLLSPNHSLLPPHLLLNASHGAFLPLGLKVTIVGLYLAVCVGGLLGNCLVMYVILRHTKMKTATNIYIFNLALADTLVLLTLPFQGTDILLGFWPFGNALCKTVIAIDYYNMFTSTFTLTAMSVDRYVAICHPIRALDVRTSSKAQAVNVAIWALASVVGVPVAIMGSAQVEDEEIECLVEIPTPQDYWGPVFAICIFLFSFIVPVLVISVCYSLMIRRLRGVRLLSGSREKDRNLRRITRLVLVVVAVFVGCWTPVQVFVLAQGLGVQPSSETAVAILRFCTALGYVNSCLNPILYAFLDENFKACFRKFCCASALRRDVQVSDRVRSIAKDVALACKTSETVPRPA
T1 sequence (P41146 whole entry): as above

For `[Li]` [lithium], the “antidepressant effects, tail suspension test” value (β-arrestin 2(−/−) mice [1]) is given as “did not evoke antidepressant effects” and the “latency to cross, light/dark test, wild type” value (wild type mice) is given as “reduces the latency to cross in wild type”.

In the case of `CNCCC(Oc1ccc(C(F)(F)F)cc1)c1ccccc1` (stereo not shown) [fluoxetine], the “antidepressant effects, tail suspension test” value (β-arrestin 2(−/−) mice [1]) is listed as “did not evoke antidepressant effects” and the “anxiolytic-like effects in β-arrestin 2(−/−) mice” value (β-arrestin 2(−/−) mice [2]) is listed as “failed to induce anxiolytic-like effects”.

In the case of `Cc1nn(-c2ncccc2CO)cc1CN1CCC2(CC1)OCC(F)(F)c1cc(Cl)sc12` [LY2940094], the “antidepressant effects, patients” value (patients) is listed as “robust antidepressant effects” and the “antidepressant effects, animals” value (animals) is listed as “robust antidepressant effects”.

For `O=C1NCN(c2ccccc2)C12CCN([C@@H]1CC[C@H]3CCCc4cccc1c43)CC2` [Ro64–6198], the anxiolytic-like effects (rodents) is listed as “produce anxiolytic-like effects”.

In the case of `O=C1NCN(c2ccccc2)C12CCN(C1Cc3cccc4cccc1c34)CC2` (stereo not shown) [Ro 65–6570], the “anxiolytic-like effect, NOP(+/+) mice” value (NOP(+/+) mice) is reported as “evident in NOP(+/+)”, the immobility time (mice [3]; Ro 65–6570 0.1 mg/kg, i.p., 30 min prior, CD-1 mice, 11–16 per group) is reported as “had no effect” and the “FST activity (Table 1 summary)” value (mice [3]) is reported as “inactive”. For the same compound, the “time spent in and number of entries in the open arms” value (mice [4]; Ro 65–6570 0.01–0.1 mg/kg, i.p., 30 min prior, CD-1 mice, 12–16 per group) was “increased in a dose-dependent manner”, the “EPM activity (Table 1 summary)” value (mice [4]) was “anxiolytic” and the “anxiolytic-like effect, NOP(−/−) mice” value (NOP(−/−) mice) was “not NOP(−/−) mice”. For the same compound, the “motor impairment in the rotarod test” value (mice [5]; mouse, in vivo) was “did not produce any motor impairment”.

In the case of `CC(C)[C@H]1CC[C@@H](N2CCC(N3C(=O)C(=O)c4ccccc43)CC2)CC1` [AT-090, 1-(1-(cis-4-isopropylcyclohexyl)piperidin-4-yl)indoline-2,3-dione], the “motor impairment in the rotarod test” value (mice [5]; AT-090 at the higher dose tested, i.p., Fig. S1) is reported as “did not evoke any motor impairment”.

For “[Nphe 1, Arg 14, Lys 15]N/OFQ-NH 2 [UFP-101]”, the “FST activity (Table 1 summary)” value (mice [3]) is listed as “antidepressant”, the “antagonism of N/OFQ stimulated NOP/β-arrestin 2 interaction” value [6] is listed as “able to antagonize” and the “EPM activity (Table 1 summary)” value (mice [4]) is listed as “inactive”. For the same compound, the “stimulation of NOP/G-protein interaction (in words)” value [7] was “inactive”, the “stimulation of NOP/β-arrestin 2 interaction (in words)” value [8] was “inactive” and the “antagonism of N/OFQ effects, NOP/G protein” value [9] was “antagonized N/OFQ effects showing a competitive type of interaction”. For the same compound, the “rank order of antagonist potency, NOP/G protein” value [9] was “SB-612111 > UFP-101”.

For `Cc1cccc2c1CC[C@H](CN1CCC(c3c(Cl)cccc3Cl)CC1)C[C@@H]2O` [SB-612111, (−)-cis-1-methyl-7-[[4-(2,6-dichlorophenyl)piperidin-1-yl]methyl]-6,7,8,9-tetrahydro-5H-benzocyclohepten-5-ol], the “FST activity (Table 1 summary)” value (mice [3]) is listed as “antidepressant”, the “antagonism of N/OFQ stimulated NOP/β-arrestin 2 interaction” value [6] is listed as “able to antagonize” and the “pharmacological activity, β-arrestin (Table 1 summary), previously obtained” value ([6]; in vitro, β-arrestin) is listed as “antagonist”. The “behavior in the EPM, per se” value (mice [4]; SB-612111 10 mg/kg, i.p., 30 min, CD-1 mice, 10–12 per group) was “did not modify per se the mouse behavior”, the “block of the anxiolytic-like effects of Ro 65–6570” value (mice [4]; SB-612111 10 mg/kg, i.p., 30 min pre-treatment, against Ro 65–6570 0.1 mg/kg i.p., CD-1 mice) was “completely block” and the “EPM activity (Table 1 summary)” value (mice [4]) was “inactive”. The “antagonism of N/OFQ effects, NOP/G protein” value [9] was “antagonized N/OFQ effects showing a competitive type of interaction”, the “rank order of antagonist potency, NOP/G protein” value [9] was “SB-612111 > UFP-101” and the “pharmacological activity, G protein (Table 1 summary), previously obtained” value ([9]; in vitro, G protein, ref Malfacini et al.) was “antagonist”.
